ChEMBL document CHEMBL1201862, “PubChem BioAssay data set” (2004)
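1) Cells in 96-well plates. 2) Compound, 48 h, 5 concentrations. 3) Linear interpolation between surrounding doses. 4) Unreached endpoint = highest concentration. At the GI50, growth is halved.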 The source made the active and inactive calls. Cut-off read from the data, not from the text of the source: active = GI50 up to about 1.1 µM and inactive = higher.

Tests used:
Assay in all cases: DTP human tumour cell line panel, 48 h
786-0 = system: 786-0
A498 = system: A498
A549 = system: A549
ACHN = system: ACHN
BT-549 = system: BT-549
CAKI-1 = system: CAKI-1
CCRF-CEM = system: CCRF-CEM
COLO 205 = system: COLO 205
DU-145 = system: DU-145
EKVX = system: EKVX
HCC 2998 = system: HCC 2998
HCT-116 = system: HCT-116
HCT-15 = system: HCT-15
HL-60 = system: HL-60
HOP-62 = system: HOP-62
HOP-92 = system: HOP-92
HT-29 = system: HT-29
Hs-578T = system: Hs-578T
IGROV-1 = system: IGROV-1
K562 = system: K562
KM12 = system: KM12
LOX IMVI = system: LOX IMVI
M14 = system: M14
MCF7 = system: MCF7
MDA-MB-231 = system: MDA-MB-231
MDA-MB-435 = system: MDA-MB-435
MDA-N = system: MDA-N
MOLT-4 = system: MOLT-4
Malme-3M = system: Malme-3M
NCI-H226 = system: NCI-H226
NCI-H23 = system: NCI-H23
NCI-H460 = system: NCI-H460
NCI-H522 = system: NCI-H522
NCI/ADR-RES = system: NCI/ADR-RES
OVCAR-3 = system: OVCAR-3
OVCAR-4 = system: OVCAR-4
OVCAR-5 = system: OVCAR-5
OVCAR-8 = system: OVCAR-8
PC-3 = system: PC-3
RXF 393 = system: RXF 393
SF-268 = system: SF-268
SF-295 = system: SF-295
SF-539 = system: SF-539
SK-MEL-28 = system: SK-MEL-28
SK-MEL-2 = system: SK-MEL-2
SK-MEL-5 = system: SK-MEL-5
SK-OV-3 = system: SK-OV-3
SN12C = system: SN12C
SNB-19 = system: SNB-19
SNB-75 = system: SNB-75
SR = system: SR
SW-620 = system: SW-620
T47D = system: T47D
TK-10 = system: TK-10
U-251 = system: U-251
UACC-257 = system: UACC-257
UACC-62 = system: UACC-62
UO-31 = system: UO-31
RPMI-8226 = system: RPMI-8226

## COC(=O)C1=C(O)C(C(=O)OC)[C@@]2(O)[C@@H](C(=O)OC)C(c3ccc(OC(=O)/C=C/c4ccccc4)cc3)C[C@@H]1[C@@H]2C(=O)OC (stereo partly specified)
786-0
  GI50: 10 µM (inactive)
A498
  GI50: 34.8 µM (inactive)
A549
  GI50: 12.6 µM (inactive)
ACHN
  GI50: 18.9 µM (inactive)
BT-549
  GI50: 8.22 µM (inactive)
CAKI-1
  GI50: 7.36 µM (inactive)
CCRF-CEM
  GI50: 2.68 µM (inactive)
COLO 205
  GI50: 10.1 µM (inactive)
DU-145
  GI50: 11 µM (inactive)
EKVX
  GI50: 12.3 µM (inactive)
HCC 2998
  GI50: 4.89 µM (inactive)
HCT-116
  GI50: 4.24 µM (inactive)
HCT-15
  GI50: 3.89 µM
HL-60
  GI50: 4.55 µM (inactive)
HOP-62
  GI50: 23.8 µM (inactive)
HOP-92
  GI50: 29.4 µM (inactive)
HT-29
  GI50: 3.66 µM (inactive)
Hs-578T
  GI50: 68.4 µM (inactive)
IGROV-1
  GI50: 8.04 µM (inactive)
K562
  GI50: 5.79 µM (inactive)
KM12
  GI50: 5.37 µM (inactive)
LOX IMVI
  GI50: 2.31 µM (inactive)
M14
  GI50: 6.84 µM (inactive)
MCF7
  GI50: 2.99 µM (inactive)
MDA-MB-231
  GI50: 14.7 µM (inactive)
MDA-MB-435
  GI50: 4.83 µM (inactive)
MDA-N
  GI50: 3.24 µM (inactive)
MOLT-4
  GI50: 2.61 µM (inactive)
Malme-3M
  GI50: 25.1 µM (inactive)
NCI-H226
  GI50: 22.6 µM (inactive)
NCI-H23
  GI50: 13.3 µM (inactive)
NCI-H460
  GI50: 2.64 µM (inactive)
NCI-H522
  GI50: 5.3 µM (inactive)
NCI/ADR-RES
  GI50: 8.41 µM (inactive)
OVCAR-3
  GI50: 9.77 µM (inactive)
OVCAR-4
  GI50: 6.18 µM (inactive)
OVCAR-5
  GI50: 12.1 µM (inactive)
OVCAR-8
  GI50: 8.69 µM (inactive)
PC-3
  GI50: 6.84 µM (inactive)
RXF 393
  GI50: 3.06 µM (inactive)
SF-268
  GI50: 9.79 µM (inactive)
SF-295
  GI50: 23.9 µM (inactive)
SF-539
  GI50: 3.43 µM (inactive)
SK-MEL-28
  GI50: 20 µM (inactive)
SK-MEL-2
  GI50: 4.32 µM (inactive)
SK-MEL-5
  GI50: 10.6 µM (inactive)
SK-OV-3
  GI50: 75.5 µM (inactive)
SN12C
  GI50: 7.11 µM (inactive)
SNB-19
  GI50: 20.6 µM (inactive)
SNB-75
  GI50: 29.6 µM (inactive)
SR
  GI50: 3.02 µM (inactive)
SW-620
  GI50: 6.01 µM (inactive)
T47D
  GI50: 8.49 µM (inactive)
TK-10
  GI50: 6.82 µM (inactive)
U-251
  GI50: 6.15 µM (inactive)
UACC-257
  GI50: 7.23 µM (inactive)
UACC-62
  GI50: 4.36 µM (inactive)
UO-31
  GI50: 10.6 µM (inactive)

## CC(=O)Nc1cc2cc(NS(=O)(=O)c3cc(C(F)(F)F)cc(C(F)(F)F)c3)ccc2oc1=O
786-0
  GI50: 72.3 µM (inactive)
A498
  GI50: > 100 µM (inactive)
A549
  GI50: > 100 µM (inactive)
ACHN
  GI50: > 100 µM (inactive)
BT-549
  GI50: > 100 µM (inactive)
CAKI-1
  GI50: > 100 µM (inactive)
CCRF-CEM
  GI50: > 100 µM (inactive)
COLO 205
  GI50: > 100 µM (inactive)
DU-145
  GI50: > 100 µM (inactive)
EKVX
  GI50: > 100 µM (inactive)
HCC 2998
  GI50: > 100 µM (inactive)
HCT-116
  GI50: > 100 µM (inactive)
HCT-15
  GI50: > 100 µM
HL-60
  GI50: > 100 µM (inactive)
HOP-62
  GI50: > 100 µM (inactive)
HOP-92
  GI50: > 100 µM (inactive)
HT-29
  GI50: > 100 µM (inactive)
Hs-578T
  GI50: > 100 µM (inactive)
IGROV-1
  GI50: > 100 µM (inactive)
K562
  GI50: > 100 µM (inactive)
KM12
  GI50: > 100 µM (inactive)
LOX IMVI
  GI50: 98.6 µM (inactive)
M14
  GI50: > 100 µM (inactive)
MCF7
  GI50: > 100 µM (inactive)
MDA-MB-231
  GI50: > 100 µM (inactive)
MDA-MB-435
  GI50: > 100 µM (inactive)
MDA-N
  GI50: > 100 µM (inactive)
MOLT-4
  GI50: > 100 µM (inactive)
Malme-3M
  GI50: > 100 µM (inactive)
NCI-H226
  GI50: > 100 µM (inactive)
NCI-H23
  GI50: > 100 µM (inactive)
NCI-H460
  GI50: > 100 µM (inactive)
NCI-H522
  GI50: > 100 µM (inactive)
NCI/ADR-RES
  GI50: > 100 µM (inactive)
OVCAR-3
  GI50: 52.1 µM (inactive)
OVCAR-4
  GI50: > 100 µM (inactive)
OVCAR-5
  GI50: > 100 µM (inactive)
OVCAR-8
  GI50: 34.3 µM (inactive)
PC-3
  GI50: > 100 µM (inactive)
RPMI-8226
  GI50: > 100 µM (inactive)
RXF 393
  GI50: 0.016 µM (active)
SF-268
  GI50: 32.6 µM (inactive)
SF-295
  GI50: > 100 µM (inactive)
SF-539
  GI50: 29.4 µM (inactive)
SK-MEL-28
  GI50: > 100 µM (inactive)
SK-MEL-2
  GI50: > 100 µM (inactive)
SK-MEL-5
  GI50: > 100 µM (inactive)
SN12C
  GI50: > 100 µM (inactive)
SNB-19
  GI50: 47.2 µM (inactive)
SR
  GI50: > 100 µM (inactive)
SW-620
  GI50: > 100 µM (inactive)
T47D
  GI50: > 100 µM (inactive)
TK-10
  GI50: > 100 µM (inactive)
U-251
  GI50: 28.7 µM (inactive)
UACC-257
  GI50: > 100 µM (inactive)
UACC-62
  GI50: > 100 µM (inactive)
UO-31
  GI50: > 100 µM (inactive)

## O=C(c1ccc([N+](=O)[O-])cc1)N1CCCC1
786-0
  GI50: > 100 µM (inactive)
A498
  GI50: > 100 µM (inactive)
A549
  GI50: > 100 µM (inactive)
ACHN
  GI50: > 100 µM (inactive)
BT-549
  GI50: > 100 µM (inactive)
CAKI-1
  GI50: > 100 µM (inactive)
CCRF-CEM
  GI50: > 100 µM (inactive)
DU-145
  GI50: > 100 µM (inactive)
EKVX
  GI50: > 100 µM (inactive)
HCC 2998
  GI50: > 100 µM (inactive)
HCT-116
  GI50: > 100 µM (inactive)
HCT-15
  GI50: > 100 µM
HL-60
  GI50: > 100 µM (inactive)
HOP-62
  GI50: > 100 µM (inactive)
HOP-92
  GI50: > 100 µM (inactive)
HT-29
  GI50: > 100 µM (inactive)
Hs-578T
  GI50: > 100 µM (inactive)
IGROV-1
  GI50: > 100 µM (inactive)
K562
  GI50: > 100 µM (inactive)
KM12
  GI50: > 100 µM (inactive)
LOX IMVI
  GI50: > 100 µM (inactive)
M14
  GI50: > 100 µM (inactive)
MCF7
  GI50: > 100 µM (inactive)
MDA-MB-231
  GI50: > 100 µM (inactive)
MDA-MB-435
  GI50: > 100 µM (inactive)
MDA-N
  GI50: > 100 µM (inactive)
MOLT-4
  GI50: > 100 µM (inactive)
Malme-3M
  GI50: > 100 µM (inactive)
NCI-H226
  GI50: > 100 µM (inactive)
NCI-H23
  GI50: > 100 µM (inactive)
NCI-H460
  GI50: > 100 µM (inactive)
NCI-H522
  GI50: > 100 µM (inactive)
NCI/ADR-RES
  GI50: > 100 µM (inactive)
OVCAR-3
  GI50: > 100 µM (inactive)
OVCAR-4
  GI50: > 100 µM (inactive)
OVCAR-5
  GI50: > 100 µM (inactive)
OVCAR-8
  GI50: > 100 µM (inactive)
PC-3
  GI50: > 100 µM (inactive)
RPMI-8226
  GI50: > 100 µM (inactive)
RXF 393
  GI50: > 100 µM (inactive)
SF-268
  GI50: > 100 µM (inactive)
SF-295
  GI50: > 100 µM (inactive)
SF-539
  GI50: > 100 µM (inactive)
SK-MEL-28
  GI50: > 100 µM (inactive)
SK-MEL-5
  GI50: > 100 µM (inactive)
SN12C
  GI50: 17.7 µM (inactive)
SNB-19
  GI50: > 100 µM (inactive)
SNB-75
  GI50: > 100 µM (inactive)
SR
  GI50: > 100 µM (inactive)
SW-620
  GI50: > 100 µM (inactive)
T47D
  GI50: > 100 µM (inactive)
TK-10
  GI50: 86.1 µM (inactive)
U-251
  GI50: > 100 µM (inactive)
UACC-257
  GI50: > 100 µM (inactive)
UACC-62
  GI50: 66.1 µM (inactive)
UO-31
  GI50: > 100 µM (inactive)
